From US12208108B2, “Drug targets of delayed aging and human brain diseases” (Texas Tech University System, priority 2016, dated 2025)

Tests used:
Assay type in all cases: in vivo
BACHD mice [1] = assay: Behavioral analysis in BACHD mice; details: BACHD mice treated for six months vs untreated BACHD mice
Protocol: Huntington's disease. To determine whether Mdivi1 reduces excessive mitochondrial fragmentation and enhances mitochondrial function and synaptic activity in bacterial artificial chromosome transgenic Huntington's disease (BACHD) mice.
(§1) The inventors treated BACHD mice and non-transgenic wild-type mice with Mdivi-1 for six months. Behavioral analysis were performed using rotarod (motor coordination), open field (locomotor activity), Y-maze (working memory) and tail suspension (neurological phenotype) in both treated and untreated BACHD and non-transgenic wild-type (WT) mice. […] The inventors also completed studies on the cell and molecular biology aspects of mitochondria and mutant huntingtin experiments. And also completed experiments on mitochondrial morphology (number and length) dendritic spine density in Mdivi-1-treated and untreated BACHD and non-transgenic WT mice.

BACHD mice [2] = assay: Gene/protein levels, dendritic spines and mitochondrial morphology in BACHD mice
Protocol: as §1
Mdivi-1-treated BACHD mice had increased dendritic spines in striatal, cortical and hippocampal tissues of Mdivi-1-treated BACHD mice relative Mdivi-1-untreated BACHD mice. Mdivi-1-treated BACHD mice had increased mitochondrial length and reduced the size of mitochondrial size.

wild-type mice = assay: Morris Water Maze, wild-type mice; details: 12-month-old WT mice, 3 weeks, vs control WT mice
Description: (§2) Impact of MitoQ in Wild-type and Transgenic Tau mice: The inventors investigated the protective effects of MitoQ and daily exercise in 12-month-old transgenic Tau (P301L strain) and age-matched wild-type mice. The purpose of this study was to assess the lifestyle factors (antioxidant-enriched diet) and physical exercise (Treadmill) effects on cognitive behavior and AD pathologies (Abeta, P-tau, mitochondrial and synaptic) in AD mice.
(§3) First, the inventors fed wild-type, Tau and APP/PS1 mice with (500 uM of MitoQ in drinking water) and physical exercise (30 minutes on Treadmill) for 3 weeks. The inventors used 12-month-old animals (n=7) per group for all treatments (WT-MitoQ, WT-Treadmill, WT-MitoQ+Treadmill), Tau (Tau-MitoQ, Tau-Treadmill,Tau-MitoQ+Treadmill) and APP/PS1 (APP/PS1-MitoQ, APP/PS1-Treadmill, APP/PS1-MitoQ+Treadmill). Age-matched control mice were used for all genotypes in these studies. After 3-weeks treatment, the cognitive behavior using Morris Water Maze test was assessed.
(§4) The inventors conducted 11 trials (4 training and 7 actual) for latency to find the platform for all groups of mice.

[3] = test system: transgenic Tau (P301L strain) mice; assay: Morris Water Maze, transgenic Tau mice; details: 12-month-old Tau mice, 3 weeks
Description: as §2, §3, §4

[4] = treated vs untreated BACHD mice

SMILES	behavioral phenotype (rotarod, open field, Y-maze, tail suspension) (BACHD mice [1])	dendritic spines (BACHD mice [2]; striatal, cortical and hippocampal tissues, treated vs untreated BACHD mice)	mitochondrial length (BACHD mice [2]; treated BACHD mice)	size of mitochondrial size (BACHD mice [2]; treated BACHD mice)	Mitochondrial biogenesis (PGC1a, Nrf1, Nrf2 and TFAM) genes (BACHD mice [2]; [4])	autophagy (LC3A, LC3B, ATG5, Beclin 1) genes (BACHD mice [2]; [4])	mRNA and protein levels of fission genes (Drp1 and Fis1) (BACHD mice [2]; [4])	mitochondrial fusion genes (Mfn1, Mfn2, and Opa1) (BACHD mice [2]; [4])	mitophagy (PINK1, TERT, BCL2, BNIP3L) genes (BACHD mice [2]; [4])	synaptic (synaptophysin, PSD95, DARPP32) genes (BACHD mice [2]; [4])	latency to find the platform (wild-type mice; 500 uM in drinking water)	latency to find the platform (wild-type mice; MitoQ+Treadmill (30 minutes))	latency to reach platform ([3]; 500 uM in drinking water, vs MitoQ untreated Tau mice)	latency to reach platform ([3]; MitoQ+Treadmill, vs MitoQ+Treadmill untreated Tau mice)
COc1cc(-n2c(S)nc3ccccc3c2=O)c(Cl)cc1Cl [Mdivi-1, 3-(2,4-Dichloro-5-methoxyphenyl)-2,3-dihydro-2-thioxo-4(1H)-quinazolinone, 3-(2,4-Dichloro-5-methoxyphenyl)-2-sulfanyl-4(3H)-quinazolinone]	significantly improved	increased	increased	reduced	increased	increased	significantly reduced	significantly increased	increased	increased	–	–	–	–
COC1=C(OC)C(=O)C(CCCCCCCCCC[P+](c2ccccc2)(c2ccccc2)c2ccccc2)=C(C)C1=O [MitoQ, Phosphonium, [10-(4,5-dimethoxy-2-methyl-3,6-dioxo-1,4-cyclohexadien-1-yl)decyl]triphenyl-, methanesulfonate]	–	–	–	–	–	–	–	–	–	–	did not show any significant difference	significantly faster	much quicker	significantly faster
